Experimental findings from patent US5675007A (priority 1994, dated 1997) are described below.

Test [1] addresses muscarinic receptors ([^3 H]-OXO-M binding). The test is described as follows: Inhibition of [^3 H]-oxotremorine-M ([^3 H]-OXO-M) binding, rat cerebral cortex. Details: species or system rat (male Hooded Lister). As to conditions: [^3 H]-OXO-M 1.88 nM, 37° C., geometric mean, n = 2.
The target of test [2] is muscarinic receptors ([^3 H]-QNB binding). Details: species or system rat (male Hooded Lister). As to conditions: rat cerebral cortex; [^3 H]-QNB 0.27 nM; geometric mean; n = 2.
A short description of test [3]: Functional studies in vivo: salivation. Details: species or system mouse (male CD1). The following applies: mouse, read-out: Salivation ED50 (dose inducing 50% of the maximum score). As for the experimental part: (§1) Male mice (CD1, Charles River UK, 25-35 g) were used in the in vivo experiments. Animals were housed in groups of 10 and allowed food and water ad libitum. Two hours prior to the experiment the animals were rehoused in groups of 5 and allowed to acclimatize to their new environment. Each group was assigned one dose of test compound.
(§2) Test compounds or vehicle were administered by either the subcutaneous (sc) or oral (po) routes. Animals were subjectively assessed for signs of salivation and body tremor 15, 30, 45, 60, 90, 120, 150, 180, 240 and 300 minutes post dose, using a scoring system: 0=absent; 1=mild; 2=moderate; 3=severe. Changes in core body temperature, a measure of central activity, were recorded at the same timepoints using a rectal probe (Comark Electronic Thermometer Type 9001 )

Test [4] in a line: Functional studies in vivo: hypothermia (core body temperature). Details: species or system mouse (male CD1). As to conditions: mouse, 95% CL on next line. As to the method:
as §1, §2

Test [5] in a line: Functional studies in vivo: body tremor. Details: species or system mouse (male CD1). The following applies: mouse, read-out: Tremor ED50 (dose inducing 50% of the maximum score). As for the experimental part: as §1, §2

Each structure is given as a SMILES string.

On to `CO/N=C(\C#N)[C@H]1C[N+]2([O-])CCC1CC2` [Compound X, [R-(Z)]-α-(methoxyimino)-α-(1-azabicyclo[2.2.2]oct-3-yl)acetonitrile-1-oxide], for which the IC50 (in general, the midpoint of a concentration-inhibition curve) in test [1] worked out at 2.86 µM; in test [2], 68.7 µM. In addition, the 50% effective dose (ED50) (usually the dose that gives a 50% effect, or the effect in half of the subjects) in test [3] (oral) was less than 0.3 mg/kg; in test [3] (sc, subcutaneous, 95% CL on next line), 2.38 mg/kg; in test [5] (oral) it was greater than 30 mg/kg; in test [5] (sc, subcutaneous), greater than 30 mg/kg. Also, the “Hypothermia ED3° (dose inducing 3° fall in core body temperature)” value in test [4] (oral) came out at 5.8 mg/kg; in test [4] (subcutaneous), 21.3 mg/kg.
